According to patent US8999976B2, “Modulators of cystic fibrosis transmembrane conductance regulator” (Vertex Pharmaceuticals Incorporated, priority 2008, dated 2015):

Molecular target: T1, ΔF508-CFTR (Homo sapiens, UniProt P13569, DEL508-508)
T1 construct: expressed in transfected cells
Assay: Membrane potential optical assay for potentiators of ΔF508-CFTR (FLIPR III, voltage sensing dyes)
Format: cell-based
Details: for Emax: NIH3T3, 100% efficacy is the maximum response obtained with 4-methyl-2-(5-phenyl-1H-pyrazol-3-yl)phenol, ΔF508 CFTR NIH 3T3 cells; for EC50: temperature-corrected ΔF508 CFTR NIH 3T3 cells, forskolin activation
Description: The assay utilizes fluorescent voltage sensing dyes to measure changes in membrane potential using a fluorescent plate reader (e.g., FLIPR III, Molecular Devices, Inc.) as a readout for increase in functional ΔF508-CFTR in NIH 3T3 cells.
To identify potentiators of ΔF508-CFTR, a double-addition HTS assay format was developed. This HTS assay utilizes fluorescent voltage sensing dyes to measure changes in membrane potential on the FLIPR III as a measurement for increase in gating (conductance) of ΔF508 CFTR in temperature-corrected ΔF508 CFTR NIH 3T3 cells.
Solutions • Bath Solution #1: (in mM) NaCl 160, KCl 4.5, CaCl2 2, MgCl2 1, HEPES 10, pH 7.4 with NaOH. • Chloride-Free Bath Solution: Chloride Salts in Bath Solution #1 are Substituted with Gluconate Salts.
NIH3T3 mouse fibroblasts stably expressing ΔF508-CFTR are used for optical measurements of membrane potential. The cells are maintained at 37° C. in 5% CO2 and 90% humidity in Dulbecco's modified Eagle's medium supplemented with 2 mM glutamine, 10% fetal bovine serum, 1×NEAA, β-ME, 1×pen/strep, and 25 mM HEPES in 175 cm^2 culture flasks. For all optical assays, the cells were seeded at ˜20,000/well in 384-well matrigel-coated plates and cultured for 2 hrs at 37° C. before culturing at 27° C. for 24 hrs. for the potentiator assay. For the correction assays, the cells are cultured at 27° C. or 37° C. with and without compounds for 16-24 hours. Electrophysiological Assays for assaying ΔF508-CFTR modulation properties of compounds.

T1 sequence (P13569 with tags, fused parts or gaps DEL508-508): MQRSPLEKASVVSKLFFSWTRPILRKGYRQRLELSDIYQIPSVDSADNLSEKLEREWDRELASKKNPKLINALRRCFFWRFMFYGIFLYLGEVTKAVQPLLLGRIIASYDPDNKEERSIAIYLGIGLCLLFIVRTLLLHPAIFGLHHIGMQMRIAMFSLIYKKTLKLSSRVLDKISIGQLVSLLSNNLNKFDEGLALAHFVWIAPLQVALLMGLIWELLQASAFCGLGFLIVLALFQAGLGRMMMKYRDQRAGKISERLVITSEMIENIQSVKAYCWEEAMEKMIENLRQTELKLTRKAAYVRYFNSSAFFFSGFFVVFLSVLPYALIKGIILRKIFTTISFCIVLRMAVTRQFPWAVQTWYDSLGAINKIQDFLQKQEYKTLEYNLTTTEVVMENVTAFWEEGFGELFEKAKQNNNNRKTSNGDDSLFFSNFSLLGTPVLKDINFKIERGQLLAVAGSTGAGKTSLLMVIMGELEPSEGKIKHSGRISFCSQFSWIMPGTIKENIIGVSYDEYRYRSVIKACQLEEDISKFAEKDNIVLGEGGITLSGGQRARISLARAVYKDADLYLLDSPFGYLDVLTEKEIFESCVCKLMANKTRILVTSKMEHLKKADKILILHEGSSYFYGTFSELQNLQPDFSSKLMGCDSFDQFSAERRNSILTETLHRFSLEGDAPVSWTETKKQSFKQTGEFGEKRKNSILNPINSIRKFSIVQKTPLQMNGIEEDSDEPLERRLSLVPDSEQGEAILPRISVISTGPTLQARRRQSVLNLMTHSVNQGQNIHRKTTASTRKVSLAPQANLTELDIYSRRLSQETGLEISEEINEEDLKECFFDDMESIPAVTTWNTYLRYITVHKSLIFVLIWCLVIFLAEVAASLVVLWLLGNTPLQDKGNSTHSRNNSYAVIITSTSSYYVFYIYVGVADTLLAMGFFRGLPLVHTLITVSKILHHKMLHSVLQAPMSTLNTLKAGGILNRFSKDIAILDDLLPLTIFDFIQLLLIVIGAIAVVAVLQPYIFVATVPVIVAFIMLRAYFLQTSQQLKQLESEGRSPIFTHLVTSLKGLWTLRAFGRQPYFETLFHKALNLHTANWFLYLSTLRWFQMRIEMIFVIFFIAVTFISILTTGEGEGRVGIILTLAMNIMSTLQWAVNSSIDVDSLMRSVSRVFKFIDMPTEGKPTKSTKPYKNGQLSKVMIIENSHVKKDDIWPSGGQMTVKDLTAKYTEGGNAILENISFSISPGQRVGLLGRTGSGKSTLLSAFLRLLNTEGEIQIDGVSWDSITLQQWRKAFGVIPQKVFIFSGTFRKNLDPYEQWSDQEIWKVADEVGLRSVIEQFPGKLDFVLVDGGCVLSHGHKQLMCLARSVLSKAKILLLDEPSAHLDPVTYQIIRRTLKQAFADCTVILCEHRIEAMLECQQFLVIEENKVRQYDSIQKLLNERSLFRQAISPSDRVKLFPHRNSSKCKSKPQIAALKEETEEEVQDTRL

| SMILES | Emax [%] | EC50 [µM] |
| --- | --- | --- |
| Cc1ccc(NC(=O)C2CNc3cc(Cl)ccc3O2)c(C#CCN(C)C)c1 (stereo not shown) [Compound 67] | 25 to 100 | < 5 |
| Cc1ccc2c(c1)OC(C(=O)Nc1cc(O)c(C3(C)CCCCC3)cc1F)CN2 (stereo not shown) [Compound 2] | 25 to 100 | < 5 |
| CC1CCN(Cc2cc(C3CCCC3)c(O)cc2NC(=O)C2CNc3cc(OC(F)(F)F)ccc3O2)CC1 (stereo not shown) [Compound 117] | > 100 | < 5 |
| COC(=O)Cc1cc(C2CCCC2)c(O)cc1NC(=O)C1CNc2cc(OC(F)(F)F)ccc2O1 (stereo not shown) [Compound 75] | > 100 | < 5 |
| CC(C)(C)c1ccc(NC(=O)C2CNc3cccc(C(F)(F)F)c3O2)cc1O (stereo not shown) [Compound 85] | 25 to 100 | < 5 |
| Cc1ccc(NC(=O)C2CNc3cc(OC(F)(F)F)ccc3O2)c(C#CCN2CCC(O)CC2)c1 (stereo not shown) [Compound 64] | 25 to 100 | < 5 |
| Cc1ccc(NC(=O)C2CNc3cc(C)ccc3O2)c(C#CCN(C)C)c1 (stereo not shown) [Compound 48] | 25 to 100 | < 5 |
| Cc1cc(C#CCN(C)C)c(NC(=O)C2CNc3cc(OC(F)(F)F)ccc3O2)cc1O (stereo not shown) [Compound 7] | 25 to 100 | < 5 |
| O=C(Nc1ccc(O)c(OC(F)(F)F)c1)C1CNc2ccc(F)cc2O1 (stereo not shown) [Compound 109] | 25 to 100 | 5 to 20 |
| CC(C)(C)c1ccc(NC(=O)C2CNc3ccccc3S2)cc1O (stereo not shown) [Compound 120, N-(4-tert-butyl-3-hydroxy-phenyl)-3,4-dihydro-2H-1,4-benzothiazine-2-carboxamide] | 25 to 100 | < 5 |
| CC(C)(C)c1ccc(NC(=O)[C@@H]2CNc3ccc(F)cc3O2)cc1O [Compound 83] | 25 to 100 | < 5 |
| Cc1cc(C2CCCC2)c(O)cc1NC(=O)[C@@H]1CNc2cc(C#N)ccc2O1 [Compound 25] | 25 to 100 | < 5 |
| CC(C)(C)c1cc(C(C)(C)C)c(NC(=O)C2CNc3ccccc3O2)cc1O (stereo not shown) [Compound 90] | 25 to 100 | < 5 |
| N#Cc1ccc2c(c1)NCC(C(=O)Nc1cc(O)c(C3CCCC3)cc1C(F)(F)F)O2 (stereo not shown) [Compound 39] | 25 to 100 | < 5 |
| N#Cc1cc(C2CCCC2)c(O)cc1NC(=O)[C@H]1CNc2ccc(F)cc2O1 [Compound 17] | 25 to 100 | < 5 |
| CN(C)CC#Cc1cc(C2CCCC2)c(O)cc1NC(=O)[C@H]1CNc2cc(OC(F)(F)F)ccc2O1 [Compound 58] | > 100 | < 5 |
| CN(C)CC#Cc1cc(C2CCCC2)c(O)cc1NC(=O)[C@H]1CNc2ccccc2O1 [Compound 84] | 25 to 100 | < 5 |

| SMILES | Emax [%] | EC50 [µM] |
| --- | --- | --- |
| Cc1ccc(NC(=O)C2CNc3cc(OC(F)(F)F)ccc3O2)c(C#CCN2CCC(F)(F)CC2)c1 (stereo not shown) [Compound 9] | 25 to 100 | < 5 |
| Cc1cccc2c1OC(C(=O)Nc1ccc(C(C)(C)C)c(O)c1)CN2 (stereo not shown) [Compound 107] | 25 to 100 | < 5 |
| Cc1ccc2c(c1)OC(C(=O)Nc1cc(O)c(C)cc1F)CN2 (stereo not shown) [Compound 86] | 25 to 100 | < 5 |
| CCOC(=O)CCc1cc(C2CCCC2)c(O)cc1NC(=O)C1CNc2cc(OC(F)(F)F)ccc2O1 (stereo not shown) [Compound 4] | > 100 | < 5 |
| CC[N+](CC)(CC)CC#Cc1cc(C)ccc1NC(=O)C1CNc2cc(OC(F)(F)F)ccc2O1 (stereo not shown) [Compound 102] | 25 to 100 | 5 to 20 |
| N#Cc1ccc2c(c1)NCC(C(=O)Nc1cc(O)c(C3CCCC3)cc1C1=CCNCC1)O2 (stereo not shown) [Compound 11, 6-cyano-N-(4-cyclopentyl-5-hydroxy-2-(1,2,3,6-tetrahydropyridin-4-yl)phenyl)-3,4-dihydro-2H-benzo[b][1,4]oxazine-2-carboxamide] | 25 to 100 | 5 to 20 |
| CC1CCN(Cc2cc(C3CCCC3)c(O)cc2NC(=O)C2CNc3ccccc3O2)CC1 (stereo not shown) [Compound 46] | > 100 | < 5 |
| CS(=O)(=O)c1cc(C2CCCC2)c(O)cc1NC(=O)C1CNc2cc(OC(F)(F)F)ccc2O1 (stereo not shown) [Compound 105] | > 100 | 5 to 20 |
| CN(C)CC#Cc1cc(C2CCCC2)c(O)cc1NC(=O)[C@@H]1CNc2cc(OC(F)(F)F)ccc2O1 [Compound 65] | > 100 | < 5 |
| N#Cc1ccc2c(c1)NCC(C(=O)Nc1cc(O)c(C3CCCC3)cc1CN1CCNCC1)O2 (stereo not shown) [Compound 51, 6-cyano-N-(4-cyclopentyl-5-hydroxy-2-(piperazin-1-ylmethyl)phenyl)-3,4-dihydro-2H-benzo[b][1,4]oxazine-2-carboxamide] | 25 to 100 | 5 to 20 |
| CC(C)(C)c1ccc(NC(=O)C2CNc3ccccc3S2(=O)=O)cc1O (stereo not shown) [Compound 121, N-(4-tert-butyl-3-hydroxy-phenyl)-1,1-dioxo-3,4-dihydro-2H-benzo[b][1,4]thiazine-2-carboxamide] | 25 to 100 | < 5 |
| COc1cc(NC(=O)C2CNc3cc(OC(F)(F)F)ccc3O2)c(C#CCN(C)C)cc1C1CCCC1 (stereo not shown) [Compound 95] | > 100 | < 5 |
| O=C(Nc1ccc(C(F)(F)F)c(O)c1)C1CNc2ccccc2O1 (stereo not shown) [Compound 5] | < 25 | 5 to 20 |
| CN(C)CC#Cc1cc(C2CCCC2)c(O)cc1NC(=O)C1(C)CNc2cc(OC(F)(F)F)ccc2O1 (stereo not shown) [Compound 79] | > 100 | < 5 |
| CC(C)(C)c1ccc(NC(=O)C2CNc3cccc(F)c3O2)cc1O (stereo not shown) [Compound 33] | 25 to 100 | < 5 |
| O=C(Nc1cc(O)c(C2CCCC2)cc1C(F)(F)F)[C@@H]1CNc2cc(F)ccc2O1 [Compound 76] | 25 to 100 | < 5 |
| CN(C)CC#Cc1cc(C2CCCC2)c(O)cc1NC(=O)C1CNc2cc(OC(F)(F)F)ccc2O1 (stereo not shown) [Compound 106] | > 100 | < 5 |

Next, values leading:

| Emax [%] | EC50 [µM] | SMILES |
| --- | --- | --- |
| 25 to 100 | < 5 | O=C(Nc1ccc(C2CC2)c(O)c1)C1CNc2ccccc2O1 (stereo not shown) [Compound 27] |
| 25 to 100 | 5 to 20 | Cc1cc(C#CCN(C)C)c(NC(=O)C2CNc3ccccc3O2)cc1F (stereo not shown) [Compound 36] |
| > 100 | < 5 | O=C(O)Cc1cc(C2CCCC2)c(O)cc1NC(=O)C1CNc2cc(OC(F)(F)F)ccc2O1 (stereo not shown) [Compound 24] |
| > 100 | < 5 | Cc1ccc(NC(=O)C2CNc3cc(OC(F)(F)F)ccc3O2)c(C#CCN2CCOCC2)c1 (stereo not shown) [Compound 100, N-(4-methyl-2-(3-morpholinoprop-1-ynyl)phenyl)-6-(trifluoromethoxy)-3,4-dihydro-2H-benzo[b][1,4]oxazine-2-carboxamide] |
| 25 to 100 | < 5 | CN(C)CCCc1cc(C2CCCC2)c(O)cc1NC(=O)C1CNc2cc(OC(F)(F)F)ccc2O1 (stereo not shown) [Compound 38, N-(4-cyclopentyl-2-(3-(dimethylamino)propyl)-5-hydroxyphenyl)-6-(trifluoromethoxy)-3,4-dihydro-2H-benzo[b][1,4]oxazine-2-carboxamide] |
| 25 to 100 | < 5 | O=C(Nc1cc(O)c(C2CCCC2)cc1CN1CCCCC1)C1CNc2ccccc2O1 (stereo not shown) [Compound 3] |
| 25 to 100 | < 5 | Cc1cnc(NC(=O)C2CNc3cc(OC(F)(F)F)ccc3O2)c(C#CCN(C)C)c1 (stereo not shown) [Compound 41] |
| 25 to 100 | < 5 | CC(C)(C)c1ccc(NC(=O)C2CNc3ccccc3O2)cc1F (stereo not shown) [Compound 92] |
| 25 to 100 | < 5 | CC(C)(C)c1ccc(NC(=O)C2CNc3cc(F)c(F)cc3O2)cc1O (stereo not shown) [Compound 49] |
| 25 to 100 | < 5 | CC(C)(C)c1ccc(NC(=O)C2CNc3c(F)cccc3O2)cc1O (stereo not shown) [Compound 78] |
| 25 to 100 | < 5 | CC1(c2cc(F)c(NC(=O)[C@@H]3CNc4ccccc4O3)cc2O)CCCCC1 [Compound 19] |
| 25 to 100 | < 5 | CC(C)(C)c1cc(C2CCCC2)c(O)cc1NC(=O)C1CNc2cc(C#N)ccc2O1 (stereo not shown) [Compound 87] |
| 25 to 100 | < 5 | CC(C)c1ccc(NC(=O)C2CNc3cc(Cl)ccc3O2)c(C#CCN(C)C)c1 (stereo not shown) [Compound 60] |
| 25 to 100 | < 5 | Cc1cc(C2CCCC2)c(O)cc1NC(=O)C1CNc2cc(C#N)ccc2O1 (stereo not shown) [Compound 74] |
| 25 to 100 | < 5 | COc1cc(NC(=O)C2CNc3ccc(F)cc3O2)c(Cl)cc1C(C)(C)O (stereo not shown) [Compound 82] |
| < 25 | 5 to 20 | CC(C)Oc1ccc(NC(=O)C2CNc3ccc(F)cc3O2)cc1O (stereo not shown) [Compound 42] |
| 25 to 100 | < 5 | CC(C)(C)c1ccc(NC(=O)C2CNc3ccc(C(F)(F)F)cc3O2)cc1O (stereo not shown) [Compound 70] |
| 25 to 100 | < 5 | N#Cc1cc(C2CCCC2)c(O)cc1NC(=O)[C@@H]1CNc2ccc(F)cc2O1 [Compound 50] |
| 25 to 100 | < 5 | COc1cc(NC(=O)C2CNc3ccc(F)cc3O2)ccc1C(C)(C)C (stereo not shown) [Compound 94] |
